Reference: paper PMC5218480 (PLoS ONE, 2017)

Tested on: MV-4-11 cells
Assay: Gene expression microarray analysis (Affymetrix PrimeView) and GSEA
Type: cell-based, human
Design: RFU PODN (11730768_x_at) / Fold change /veh PODN (11730768_x_at) / RFU LINC00158 (11744669_a_at) / Fold change /veh LINC00158 (11744669_a_at) / RFU DUSP10 (11751237_a_at) / Fold change /veh DUSP10 (11751237_a_at) / RFU ID3 (11757404_x_at) / Fold change /veh ID3 (11757404_x_at) / RFU PLEKHG5 (11737974_s_at) / Fold change /veh PLEKHG5 (11737974_s_at) / RFU LRRC4B (11730491_at) / Fold change /veh LRRC4B (11730491_at) / RFU GIMAP4 (11747438_a_at) / Fold change /veh GIMAP4 (11747438_a_at) / RFU KRT8 (11758183_x_at) / Fold change /veh KRT8 (11758183_x_at) / RFU CNN1 (11734310_a_at) / Fold change /veh CNN1 (11734310_a_at) / RFU VPS37D (11726825_at) / Fold change /veh VPS37D (11726825_at) / RFU C10orf10 (11716522_x_at) / Fold change /veh C10orf10 (11716522_x_at) / RFU KIR2DL2 /// KIR2DL4 /// KIR2DL5A /// KIR2DL5B /// KIR2DS1 /// KIR2DS2 /// KIR2DS3 /// KIR2DS4 /// KIR3DL3 /// KIR3DL3 /// KIR3DS1 (11738374_at) / Fold change /veh KIR2DL2 /// KIR2DL4 /// KIR2DL5A /// KIR2DL5B /// KIR2DS1 /// KIR2DS2 /// KIR2DS3 /// KIR2DS4 /// KIR3DL3 /// KIR3DL3 /// KIR3DS1 (11738374_at) / RFU C1QL1 (11718748_at) / Fold change /veh C1QL1 (11718748_at) / RFU TMPRSS4 (11747572_a_at) / Fold change /veh TMPRSS4 (11747572_a_at) / RFU HAMP (11756126_x_at) / Fold change /veh HAMP (11756126_x_at) / RFU RNFT2 (11725882_a_at) / Fold change /veh RNFT2 (11725882_a_at) / RFU NR4A2 (11747474_a_at) / Fold change /veh NR4A2 (11747474_a_at) / RFU ABCC12 (11746883_a_at) / Fold change /veh ABCC12 (11746883_a_at) / RFU TMEM136 (11760407_x_at) / Fold change /veh TMEM136 (11760407_x_at) / RFU CLDN22 /// WWC2 (11732394_at) / Fold change /veh CLDN22 /// WWC2 (11732394_at) / RFU HLA-DPB1 (11760878_x_at) / Fold change /veh HLA-DPB1 (11760878_x_at) / RFU SPINT1 (11716480_a_at) / Fold change /veh SPINT1 (11716480_a_at) / RFU GAP43 (11754022_s_at) / Fold change /veh GAP43 (11754022_s_at) / RFU A4GNT (11735810_at) / Fold change /veh A4GNT (11735810_at) / RFU PRB3 (11715151_x_at) / Fold change /veh PRB3 (11715151_x_at) / RFU TUBB4B (11761932_at) / Fold change /veh TUBB4B (11761932_at) / RFU CAPN14 (11732068_a_at) / Fold change /veh CAPN14 (11732068_a_at) / RFU TMCC2 (11721928_a_at) / Fold change /veh TMCC2 (11721928_a_at) / RFU IRGQ (11745062_a_at) / Fold change /veh IRGQ (11745062_a_at) / RFU FAM174B (11720279_a_at) / Fold change /veh FAM174B (11720279_a_at) / RFU TMPRSS4 (11748680_a_at) / Fold change /veh TMPRSS4 (11748680_a_at) / RFU FAM212B (11763350_a_at) / Fold change /veh FAM212B (11763350_a_at) / RFU PLEKHG5 (11743358_a_at) / Fold change /veh PLEKHG5 (11743358_a_at) / RFU ZSCAN30 (11745921_a_at) / Fold change /veh ZSCAN30 (11745921_a_at) / RFU CMKLR1 (11741424_a_at) / Fold change /veh CMKLR1 (11741424_a_at) / RFU LOC101060620 /// MAPK8IP1 (11723275_at) / Fold change /veh LOC101060620 /// MAPK8IP1 (11723275_at) / RFU SPTSSB (11747773_x_at) / Fold change /veh SPTSSB (11747773_x_at) / RFU PRSS12 (11739890_at) / Fold change /veh PRSS12 (11739890_at) / RFU BIN1 (11741810_x_at) / Fold change /veh BIN1 (11741810_x_at) / RFU WNT11 (11732464_a_at) / Fold change /veh WNT11 (11732464_a_at) / RFU C10orf10 (11716521_a_at) / Fold change /veh C10orf10 (11716521_a_at) / RFU C5orf56 (11738089_at) / Fold change /veh C5orf56 (11738089_at) / RFU CYB561 (11721691_x_at) / Fold change /veh CYB561 (11721691_x_at) / RFU ANKRD19P (11752326_a_at) / Fold change /veh ANKRD19P (11752326_a_at) / RFU OR2T12 /// OR2T33 /// OR2T8 (11738714_s_at) / Fold change /veh OR2T12 /// OR2T33 /// OR2T8 (11738714_s_at) / RFU VCAN (11748164_a_at) / Fold change /veh VCAN (11748164_a_at) / RFU JSRP1 (11732532_at) / Fold change /veh JSRP1 (11732532_at) / RFU KRTAP10-11 (11738290_x_at) / Fold change /veh KRTAP10-11 (11738290_x_at) / RFU MYO3A (11730013_a_at) / Fold change /veh MYO3A (11730013_a_at) / RFU EBF3 (11725865_a_at) / Fold change /veh EBF3 (11725865_a_at) / RFU CAMK2N1 (11719241_x_at) / Fold change /veh CAMK2N1 (11719241_x_at) / RFU C5orf56 (11738088_a_at) / Fold change /veh C5orf56 (11738088_a_at) / RFU OLFML3 (11715873_a_at) / Fold change /veh OLFML3 (11715873_a_at) / RFU LOC100653217 /// NTM (11731650_a_at) / Fold change /veh LOC100653217 /// NTM (11731650_a_at) / RFU MAPK11 (11762145_a_at) / Fold change /veh MAPK11 (11762145_a_at) / RFU FIZ1 (11724087_x_at) / Fold change /veh FIZ1 (11724087_x_at) / RFU OASL (11726364_x_at) / Fold change /veh OASL (11726364_x_at) / RFU SOX15 (11748057_x_at) / Fold change /veh SOX15 (11748057_x_at) / RFU CD79A (11719716_a_at) / Fold change /veh CD79A (11719716_a_at) / RFU HIST1H1D (11736915_at) / Fold change /veh HIST1H1D (11736915_at) / RFU CASKIN2 (11723855_a_at) / Fold change /veh CASKIN2 (11723855_a_at) / RFU LOC730098 (11760151_x_at) / Fold change /veh LOC730098 (11760151_x_at) / RFU OR4N2 (11742367_at) / Fold change /veh OR4N2 (11742367_at) / RFU PRRT2 (11749266_a_at) / Fold change /veh PRRT2 (11749266_a_at) / RFU SNX32 (11753110_a_at) / Fold change /veh SNX32 (11753110_a_at) / RFU CDHR5 (11726645_a_at) / Fold change /veh CDHR5 (11726645_a_at) / RFU RCAN1 (11760418_a_at) / Fold change /veh RCAN1 (11760418_a_at) / RFU FAM167A (11723789_a_at) / Fold change /veh FAM167A (11723789_a_at) / RFU FAM26E (11764081_at) / Fold change /veh FAM26E (11764081_at) / RFU ISYNA1 (11749810_s_at) / Fold change /veh ISYNA1 (11749810_s_at) / RFU ACY1 (11761880_at) / Fold change /veh ACY1 (11761880_at) / RFU 11764098_at / Fold change /veh 11764098_at / RFU SAMD14 (11745864_x_at) / Fold change /veh SAMD14 (11745864_x_at) / RFU NPB (11741838_a_at) / Fold change /veh NPB (11741838_a_at) / RFU TMPRSS6 (11731388_a_at) / Fold change /veh TMPRSS6 (11731388_a_at) / RFU KRTAP10-2 (11738614_at) / Fold change /veh KRTAP10-2 (11738614_at) / RFU ARHGAP8 /// PRR5-ARHGAP8 (11727945_x_at) / Fold change /veh ARHGAP8 /// PRR5-ARHGAP8 (11727945_x_at) / RFU KRTAP5-7 /// NADSYN1 (11734609_at) / Fold change /veh KRTAP5-7 /// NADSYN1 (11734609_at) / RFU RASL12 (11751679_a_at) / Fold change /veh RASL12 (11751679_a_at) / RFU CDKN2B (11736163_a_at) / Fold change /veh CDKN2B (11736163_a_at) / RFU PRF1 (11729649_at) / Fold change /veh PRF1 (11729649_at) / RFU, ZNF638 /// ZNF638-IT1 / Fold change vs veh, ZNF638 /// ZNF638-IT1 / RFU, PANK3 / Fold change vs veh, PANK3 / RFU, SH3YL1 / Fold change vs veh, SH3YL1 / RFU, ZEB2 / Fold change vs veh, ZEB2 / RFU, NRIP1 / Fold change vs veh, NRIP1 / RFU, PTTG1IP / Fold change vs veh, PTTG1IP / RFU, CAPN2 / Fold change vs veh, CAPN2 / RFU, MED14 / Fold change vs veh, MED14 / RFU, SNORA58 / Fold change vs veh, SNORA58 / RFU, C1orf63 / Fold change vs veh, C1orf63 / RFU, LRRFIP1 / Fold change vs veh, LRRFIP1 / RFU, NDUFAF7 / Fold change vs veh, NDUFAF7 / RFU, SLC12A2 / Fold change vs veh, SLC12A2 / RFU, IBTK / Fold change vs veh, IBTK / RFU, ESF1 / Fold change vs veh, ESF1 / Fold change vs veh, TMEM50B / RFU, TAOK1 / Fold change vs veh, TAOK1 / RFU, ACBD3 / Fold change vs veh, ACBD3 / RFU, TMA16 / Fold change vs veh, TMA16 / RFU, RWDD3 / Fold change vs veh, RWDD3 / RFU, BCAT1 / Fold change vs veh, BCAT1 / RFU, EDEM3 / Fold change vs veh, EDEM3 / RFU, TMEM33 / Fold change vs veh, TMEM33 / RFU, WDR75 / Fold change vs veh, WDR75 / RFU, AHCTF1 / Fold change vs veh, AHCTF1 / RFU, TFRC / Fold change vs veh, TFRC / RFU, ZDHHC17 / Fold change vs veh, ZDHHC17 / RFU, NOM1 / Fold change vs veh, NOM1 / RFU, ARL8B / Fold change vs veh, ARL8B / RFU, ZBTB11 / Fold change vs veh, ZBTB11 / RFU, TAMM41 / Fold change vs veh, TAMM41 / RFU, KIAA1704 /// LOC100996395 / Fold change vs veh, KIAA1704 /// LOC100996395 / RFU, ING1 / Fold change vs veh, ING1 / RFU, TRMT61B / Fold change vs veh, TRMT61B / RFU, FUBP3 / Fold change vs veh, FUBP3 / RFU, TP53 / Fold change vs veh, TP53 / RFU, TNKS2 / Fold change vs veh, TNKS2 / RFU, ZFP14 / Fold change vs veh, ZFP14 / RFU, ACTR2 / Fold change vs veh, ACTR2 / RFU, PPP3R1 / Fold change vs veh, PPP3R1 / RFU, PIK3R1 / Fold change vs veh, PIK3R1 / RFU, HNRNPA1 / Fold change vs veh, HNRNPA1 / RFU, RNF170 / Fold change vs veh, RNF170 / RFU, ZNF28 / Fold change vs veh, ZNF28 / RFU, RNGTT / Fold change vs veh, RNGTT / RFU, OGT / Fold change vs veh, OGT / RFU, BRD1 / Fold change vs veh, BRD1 / RFU, MARS / Fold change vs veh, MARS / RFU, ZNF655 / Fold change vs veh, ZNF655 / RFU, FAHD1 / Fold change vs veh, FAHD1 / RFU, BDP1 / Fold change vs veh, BDP1 / RFU, LRRCC1 / Fold change vs veh, LRRCC1 / RFU, ARID1A / Fold change vs veh, ARID1A / RFU, ZNF146 / Fold change vs veh, ZNF146 / RFU, ZNF330 / Fold change vs veh, ZNF330 / RFU, GPN3 / Fold change vs veh, GPN3 / RFU, C9orf123 / Fold change vs veh, C9orf123 / RFU, N4BP2L2 / Fold change vs veh, N4BP2L2 / RFU, ARFIP1 / Fold change vs veh, ARFIP1 / RFU, FAM179B / Fold change vs veh, FAM179B / RFU, BCL10 / Fold change vs veh, BCL10 / RFU, UHRF1BP1L / Fold change vs veh, UHRF1BP1L / RFU, BET1 / Fold change vs veh, BET1 / RFU, CNOT2 / Fold change vs veh, CNOT2 / RFU, ZNF268 / Fold change vs veh, ZNF268 / Fold change vs veh, ZNF507 / RFU, DGCR2 / Fold change vs veh, DGCR2 / RFU, WDSUB1 / Fold change vs veh, WDSUB1 / Fold change vs veh, HSP90B1 /// MIR3652 / RFU, ADSS / Fold change vs veh, ADSS / RFU, GK / Fold change vs veh, GK / RFU, ZNF148 / Fold change vs veh, ZNF148 / RFU, TAF9 / Fold change vs veh, TAF9 / RFU, SLC1A5 / Fold change vs veh, SLC1A5 / RFU, SLMO2 / Fold change vs veh, SLMO2 / RFU, ABCC4 / Fold change vs veh, ABCC4 / RFU, LOC101060439 /// RAP1B / Fold change vs veh, LOC101060439 /// RAP1B / RFU, RFX7 / Fold change vs veh, RFX7 / RFU, GTPBP10 / Fold change vs veh, GTPBP10 / RFU, CNEP1R1 / Fold change vs veh, CNEP1R1 / RFU, BIVM-ERCC5 /// ERCC5 / Fold change vs veh, BIVM-ERCC5 /// ERCC5 / RFU, ILF3 / Fold change vs veh, ILF3 / RFU 11762660_at / Fold change /veh 11762660_at / RFU VCAN (11757783_s_at) / Fold change /veh VCAN (11757783_s_at) / RFU DDX43 (11728927_at) / Fold change /veh DDX43 (11728927_at) / RFU KRT8 (11758188_x_at) / Fold change /veh KRT8 (11758188_x_at) / RFU NKD1 (11759106_at) / Fold change /veh NKD1 (11759106_at) / RFU SRD5A1 (11742802_a_at) / Fold change /veh SRD5A1 (11742802_a_at) / RFU TPSAB1 /// TPSB2 (11721975_s_at) / Fold change /veh TPSAB1 /// TPSB2 (11721975_s_at) / RFU GSTM3 (11746129_a_at) / Fold change /veh GSTM3 (11746129_a_at) / RFU IL23R (11737362_x_at) / Fold change /veh IL23R (11737362_x_at) / RFU TMEM51 (11727254_a_at) / Fold change /veh TMEM51 (11727254_a_at) / RFU PIWIL2 (11732686_x_at) / Fold change /veh PIWIL2 (11732686_x_at) / RFU ORM1 (11744905_x_at) / Fold change /veh ORM1 (11744905_x_at) / RFU CCDC152 (11743942_at) / Fold change /veh CCDC152 (11743942_at) / RFU ECM1 (11717891_a_at) / Fold change /veh ECM1 (11717891_a_at) / RFU IL23R (11748794_a_at) / Fold change /veh IL23R (11748794_a_at) / RFU TNFAIP8L3 (11732012_x_at) / Fold change /veh TNFAIP8L3 (11732012_x_at) / RFU MBOAT4 (11741988_at) / Fold change /veh MBOAT4 (11741988_at) / RFU 11764193_at / Fold change /veh 11764193_at / RFU TMEM53 (11763286_at) / Fold change /veh TMEM53 (11763286_at) / RFU MAGEB2 (11727129_at) / Fold change /veh MAGEB2 (11727129_at) / RFU TMEM200A (11744735_a_at) / Fold change /veh TMEM200A (11744735_a_at) / RFU CCDC152 (11751479_a_at) / Fold change /veh CCDC152 (11751479_a_at) / RFU FAM211A (11726209_a_at) / Fold change /veh FAM211A (11726209_a_at) / RFU RGS16 (11746705_a_at) / Fold change /veh RGS16 (11746705_a_at) / RFU VCAN (11755009_s_at) / Fold change /veh VCAN (11755009_s_at) / RFU RHOB (11743442_s_at) / Fold change /veh RHOB (11743442_s_at) / RFU RGS16 (11720943_a_at) / Fold change /veh RGS16 (11720943_a_at) / RFU RGS16 (11720944_at) / Fold change /veh RGS16 (11720944_at) / RFU, VPS4B / Fold change vs veh, VPS4B / RFU, CREB1 / Fold change vs veh, CREB1 / RFU, DNAJC13 / Fold change vs veh, DNAJC13 / RFU, GNAQ / Fold change vs veh, GNAQ / RFU, CDK5R1 / Fold change vs veh, CDK5R1 / RFU, ZRANB3 / Fold change vs veh, ZRANB3 / RFU, CUL4A / Fold change vs veh, CUL4A / RFU, CCNY / Fold change vs veh, CCNY / RFU, UFL1 / Fold change vs veh, UFL1 / RFU, COG3 / Fold change vs veh, COG3 / RFU, DIAPH2 / Fold change vs veh, DIAPH2 / RFU, SKA2 / Fold change vs veh, SKA2 / RFU, AFF3 / Fold change vs veh, AFF3 / RFU, LMF1 / Fold change vs veh, LMF1 / RFU, IPO11 / Fold change vs veh, IPO11 / RFU, DFFB / Fold change vs veh, DFFB / RFU, FOXP1 / Fold change vs veh, FOXP1 / RFU, CARD8 / Fold change vs veh, CARD8 / RFU, STRN3 / Fold change vs veh, STRN3 / RFU, ADK / Fold change vs veh, ADK / RFU, RASSF2 / Fold change vs veh, RASSF2 / RFU, WIPF1 / Fold change vs veh, WIPF1 / RFU, LARP1B / Fold change vs veh, LARP1B / RFU, RASA1 / Fold change vs veh, RASA1 / RFU, RB1 / Fold change vs veh, RB1 / RFU, PPFIA1 / Fold change vs veh, PPFIA1 / RFU, MAT2A / Fold change vs veh, MAT2A / RFU, CCT5 / Fold change vs veh, CCT5 / RFU, WDR92 / Fold change vs veh, WDR92 / RFU, CUX1 / Fold change vs veh, CUX1 / RFU, TTC7A / Fold change vs veh, TTC7A / RFU, TMEM135 / Fold change vs veh, TMEM135 / RFU, DEPTOR / Fold change vs veh, DEPTOR / RFU, CPM / Fold change vs veh, CPM / RFU, DNAJB6 / Fold change vs veh, DNAJB6 / RFU, CACNA2D3 / Fold change vs veh, CACNA2D3 / RFU, DTX4 / Fold change vs veh, DTX4 / RFU, TFCP2 / Fold change vs veh, TFCP2 / RFU, GMCL1 /// GMCL1P1 / Fold change vs veh, GMCL1 /// GMCL1P1 / RFU, AEBP2 / Fold change vs veh, AEBP2 / RFU, SNHG1 /// SNORD22 /// SNORD25 /// SNORD26 /// SNORD27 /// SNORD28 /// SNORD29 /// SNORD31 / Fold change vs veh, SNHG1 /// SNORD22 /// SNORD25 /// SNORD26 /// SNORD27 /// SNORD28 /// SNORD29 /// SNORD31 / Fold change (Aza/veh), C12orf56 (ProbeSet 11735607_a_at) / Fold change (ACY-1035/veh), C12orf56 (ProbeSet 11735607_a_at) / Fold change (Aza/veh), FGFR1OP (ProbeSet 11751329_s_at) / Fold change (ACY-1035/veh), FGFR1OP (ProbeSet 11751329_s_at) / Fold change (Aza/veh), VPS36 (ProbeSet 11739960_a_at) / Fold change (ACY-1035/veh), VPS36 (ProbeSet 11739960_a_at) / RFU SYPL1 (11715823_x_at) / Fold change /veh SYPL1 (11715823_x_at) / RFU IGFBP7 (11715501_s_at) / Fold change /veh IGFBP7 (11715501_s_at) / RFU REEP3 (11722064_at) / Fold change /veh REEP3 (11722064_at) / RFU IGLL1 (11728026_x_at) / Fold change /veh IGLL1 (11728026_x_at): dose or concentration left out as unconfirmed
Conditions: ProbeSet 11763166_a_at; LIST B

Nc1ncn([C@@H]2O[C@H](CO)[C@@H](O)[C@H]2O)c(=O)n1 [azacitidine]
Fold change vs veh, MARS: 0.85
